{"source": "paper PMC12251549", "about": "“Engineering a Radiohybrid PSMA Ligand with an Albumin-Binding Moiety and Pharmacokinetic Modulation via an Albumin-Binding Competitor for Radiotheranostics” (Molecules, 2025)", "key": {"[1]": {"experiment": "In vitro stability test in 0.1 M phosphate buffer", "format": "physicochemical", "settings": "0.1 M PB solution containing 10% ethanol, 37 °C, 24 h, mean ± SD for three samples", "experimental": "samples were analyzed by RP-HPLC using a Cosmosil 5C18-AR-II (4.6 × 150 mm) at a flow rate of 1 mL/min with a gradient mobile phase of 60% methanol in water with 0.1% trifluoroacetic acid (TFA) to 80% methanol in water with 0.1% TFA for 20 min.\nIn vitro stability test in 0.1 M PB solution containing 10% ethanol was performed. The […]\nand 97.1 ± 0.9% (mean ± SD for three samples) after incubating at 37 °C for 24 h, […]"}, "[2]": {"experiment": "Biodistribution with post-administration of albumin-binding competitor IPBA", "format": "in vivo, normal mice (ddY)", "settings": "normal mice, IPBA at 1 h postinjection, 10 molar equivalent of blood albumin; except in the kidney", "experimental": "To evaluate the effects of an albumin-binding competitor (sodium salt of IPBA) in normal mice, [^125I]5 and [^211At]6 were intravenously co-administered. At 1 h postinjection of the radiolabeled compounds, IPBA (3.4 mg, 11 µmol) dissolved in saline at a 10 molar equivalent of blood albumin was administered. Mice were sacrificed at 65 min, 70 min, 2 h, 4 h, 12 h, and 24 h postinjection of [^125I]5 and [^211At]6. Tissues of interest were treated, and the radioactivity was measured in the same manner as above. Data are also shown as %ID/g or %ID."}, "[3]": {"experiment": "Biodistribution after intravenous co-injection of [125I]5 and [67Ga]Ga-PSMA-617 (Table S1)", "format": "in vivo, normal mice (ddY)", "settings": "normal mice; for Biodistribution of radioactivity: Blood / Biodistribution of radioactivity: Bone / Biodistribution of radioactivity: Brain / Biodistribution of radioactivity: Heart / Biodistribution of radioactivity: Kidney / Biodistribution of radioactivity: L. Intestine / Biodistribution of radioactivity: Liver / Biodistribution of radioactivity: Lung / Biodistribution of radioactivity: Muscle / Biodistribution of radioactivity: Neck / Biodistribution of radioactivity: Pancreas / Biodistribution of radioactivity: S. Intestine / Biodistribution of radioactivity: Spleen / Biodistribution of radioactivity: Stomach: i.v.", "experimental": "[^67Ga]Ga-PSMA-617 (37 kBq) and [^125I]5 (37 kBq) or [^125I]5 (37 kBq) and [^211At]6 (37 kBq) were intravenously co-administered into three or four normal mice at each timepoint (6 weeks male ddY mice, 28–30 g, Japan SLC, Inc., Hamamatsu, Japan). Mice were sacrificed at 10 min, 1 h, 4 h, and 24 h ([^67Ga]Ga-PSMA-617 and [^125I]5) or at 10 min, 1 h, 4 h, 12 h, and 24 h ([^125I]5 and [^211At]6) postinjection of the radiolabeled compounds. Tissues of interest were removed and weighed, and the radioactivity of ^67Ga and ^125I and ^125I and ^211At were determined with an auto well gamma counter (ARC-8001) and corrected for background radiation as described in the Cellular Uptake Experiments Section. To determine the amount and routes of the radioactivity excreted from the body for 24 h after the injection of radiolabeled compounds, mice were housed in metabolic cages (METABOLICA, SUGIYAMA-GEN Co., Ltd., Tokyo, Japan). Data are shown as the percentage of injected dose per gram of tissues (%ID/g) or %ID."}}, "data": [{"smiles": "O=C([O-])CN1CCN(CC(=O)[O-])CCN(CC(=O)NC(CCCCNC(=O)CCCc2ccc([125I])cc2)C(=O)NCC2CCC(C(=O)NC(Cc3ccc4ccccc4c3)C(=O)NCCCCC(NC(=O)NC(CCC(=O)O)C(=O)O)C(=O)O)CC2)CCN(CC(=O)[O-])CC1.[Ga+3]", "note": "(stereo not shown) [[^125I]5]", "values": [{"measurement": "Radiochemical purity after incubation (in vitro stability)", "setting": "[1]", "result": "97.0 ± 0.7", "unit": "%"}, {"measurement": "Effect of IPBA administration on radioactivity levels in tissues", "setting": "[2]", "result": "significantly decreased"}, {"measurement": "Excretion in feces", "setting": "[3]; 24 h postinjection", "result": "2.3 ± 0.3", "unit": "%ID"}, {"measurement": "Excretion in urine", "setting": "[3]; 24 h postinjection", "result": "10.3 ± 0.7", "unit": "%ID"}, {"measurement": "Blood retention", "setting": "[3]; compared with [67Ga]Ga-PSMA-617", "result": "significantly prolonged blood retention"}, {"measurement": "Biodistribution of radioactivity: Blood", "setting": "[3]; 10 min after injection", "result": "26.76 (0.56) % injected dose per gram"}, {"measurement": "Biodistribution of radioactivity: Bone", "setting": "[3]; 10 min after injection", "result": "2.56 (0.45) % injected dose per gram"}, {"measurement": "Biodistribution of radioactivity: Brain", "setting": "[3]; 10 min after injection", "result": "0.66 (0.14) % injected dose per gram"}, {"measurement": "Biodistribution of radioactivity: Heart", "setting": "[3]; 10 min after injection", "result": "4.87 (0.63) % injected dose per gram"}, {"measurement": "Biodistribution of radioactivity: Kidney", "setting": "[3]; 10 min after injection", "result": "10.29 (0.97) % injected dose per gram"}, {"measurement": "Biodistribution of radioactivity: L. Intestine", "setting": "[3]; 10 min after injection", "result": "1.10 (0.07) % injected dose per gram"}, {"measurement": "Biodistribution of radioactivity: Liver", "setting": "[3]; 10 min after injection", "result": "3.89 (0.34) % injected dose per gram"}, {"measurement": "Biodistribution of radioactivity: Lung", "setting": "[3]; 10 min after injection", "result": "10.56 (0.97) % injected dose per gram"}, {"measurement": "Biodistribution of radioactivity: Muscle", "setting": "[3]; 10 min after injection", "result": "0.89 (0.02) % injected dose per gram"}, {"measurement": "Biodistribution of radioactivity: Neck", "setting": "[3]; 10 min after injection", "result": "0.04 (0.01) % injected dose"}, {"measurement": "Biodistribution of radioactivity: Pancreas", "setting": "[3]; 10 min after injection", "result": "3.05 (0.20) % injected dose per gram"}, {"measurement": "Biodistribution of radioactivity: S. Intestine", "setting": "[3]; 10 min after injection", "result": "2.11 (0.10) % injected dose per gram"}, {"measurement": "Biodistribution of radioactivity: Spleen", "setting": "[3]; 10 min after injection", "result": "3.22 (0.38) % injected dose per gram"}, {"measurement": "Biodistribution of radioactivity: Stomach", "setting": "[3]; 10 min after injection", "result": "0.78 (0.10) % injected dose"}, {"measurement": "Biodistribution of radioactivity: Blood", "setting": "[3]; 1 h after injection", "result": "16.99 (1.80) % injected dose per gram"}, {"measurement": "Biodistribution of radioactivity: Bone", "setting": "[3]; 1 h after injection", "result": "2.18 (0.26) % injected dose per gram"}, {"measurement": "Biodistribution of radioactivity: Brain", "setting": "[3]; 1 h after injection", "result": "0.44 (0.19) % injected dose per gram"}, {"measurement": "Biodistribution of radioactivity: Heart", "setting": "[3]; 1 h after injection", "result": "4.00 (0.35) % injected dose per gram"}, {"measurement": "Biodistribution of radioactivity: Kidney", "setting": "[3]; 1 h after injection", "result": "6.22 (0.27) % injected dose per gram"}, {"measurement": "Biodistribution of radioactivity: L. Intestine", "setting": "[3]; 1 h after injection", "result": "1.16 (0.18) % injected dose per gram"}, {"measurement": "Biodistribution of radioactivity: Liver", "setting": "[3]; 1 h after injection", "result": "2.67 (0.11) % injected dose per gram"}, {"measurement": "Biodistribution of radioactivity: Lung", "setting": "[3]; 1 h after injection", "result": "9.59 (2.25) % injected dose per gram"}, {"measurement": "Biodistribution of radioactivity: Muscle", "setting": "[3]; 1 h after injection", "result": "1.06 (0.06) % injected dose per gram"}, {"measurement": "Biodistribution of radioactivity: Neck", "setting": "[3]; 1 h after injection", "result": "0.03 (0.01) % injected dose"}, {"measurement": "Biodistribution of radioactivity: Pancreas", "setting": "[3]; 1 h after injection", "result": "2.30 (0.22) % injected dose per gram"}, {"measurement": "Biodistribution of radioactivity: S. Intestine", "setting": "[3]; 1 h after injection", "result": "2.02 (0.21) % injected dose per gram"}, {"measurement": "Biodistribution of radioactivity: Spleen", "setting": "[3]; 1 h after injection", "result": "2.01 (0.29) % injected dose per gram"}, {"measurement": "Biodistribution of radioactivity: Stomach", "setting": "[3]; 1 h after injection", "result": "0.75 (0.08) % injected dose"}, {"measurement": "Biodistribution of radioactivity: Blood", "setting": "[3]; 4 h after injection", "result": "14.52 (0.22) % injected dose per gram"}, {"measurement": "Biodistribution of radioactivity: Bone", "setting": "[3]; 4 h after injection", "result": "1.57 (0.64) % injected dose per gram"}, {"measurement": "Biodistribution of radioactivity: Brain", "setting": "[3]; 4 h after injection", "result": "0.30 (0.03) % injected dose per gram"}, {"measurement": "Biodistribution of radioactivity: Heart", "setting": "[3]; 4 h after injection", "result": "3.97 (0.22) % injected dose per gram"}, {"measurement": "Biodistribution of radioactivity: Kidney", "setting": "[3]; 4 h after injection", "result": "6.93 (0.24) % injected dose per gram"}, {"measurement": "Biodistribution of radioactivity: L. Intestine", "setting": "[3]; 4 h after injection", "result": "2.03 (0.07) % injected dose per gram"}, {"measurement": "Biodistribution of radioactivity: Liver", "setting": "[3]; 4 h after injection", "result": "2.76 (0.11) % injected dose per gram"}, {"measurement": "Biodistribution of radioactivity: Lung", "setting": "[3]; 4 h after injection", "result": "8.37 (0.62) % injected dose per gram"}, {"measurement": "Biodistribution of radioactivity: Muscle", "setting": "[3]; 4 h after injection", "result": "1.41 (0.07) % injected dose per gram"}, {"measurement": "Biodistribution of radioactivity: Neck", "setting": "[3]; 4 h after injection", "result": "0.03 (0.00) % injected dose"}, {"measurement": "Biodistribution of radioactivity: Pancreas", "setting": "[3]; 4 h after injection", "result": "2.33 (0.13) % injected dose per gram"}, {"measurement": "Biodistribution of radioactivity: S. Intestine", "setting": "[3]; 4 h after injection", "result": "1.99 (0.14) % injected dose per gram"}, {"measurement": "Biodistribution of radioactivity: Spleen", "setting": "[3]; 4 h after injection", "result": "1.59 (0.35) % injected dose per gram"}, {"measurement": "Biodistribution of radioactivity: Stomach", "setting": "[3]; 4 h after injection", "result": "0.69 (0.08) % injected dose"}, {"measurement": "Biodistribution of radioactivity: Blood", "setting": "[3]; 24 h after injection", "result": "9.84 (0.85) % injected dose per gram"}, {"measurement": "Biodistribution of radioactivity: Bone", "setting": "[3]; 24 h after injection", "result": "1.57 (0.22) % injected dose per gram"}, {"measurement": "Biodistribution of radioactivity: Brain", "setting": "[3]; 24 h after injection", "result": "0.30 (0.03) % injected dose per gram"}, {"measurement": "Biodistribution of radioactivity: Heart", "setting": "[3]; 24 h after injection", "result": "2.85 (0.36) % injected dose per gram"}, {"measurement": "Biodistribution of radioactivity: Kidney", "setting": "[3]; 24 h after injection", "result": "7.37 (0.99) % injected dose per gram"}, {"measurement": "Biodistribution of radioactivity: L. Intestine", "setting": "[3]; 24 h after injection", "result": "1.15 (0.35) % injected dose per gram"}, {"measurement": "Biodistribution of radioactivity: Liver", "setting": "[3]; 24 h after injection", "result": "1.59 (0.34) % injected dose per gram"}, {"measurement": "Biodistribution of radioactivity: Lung", "setting": "[3]; 24 h after injection", "result": "6.18 (0.83) % injected dose per gram"}, {"measurement": "Biodistribution of radioactivity: Muscle", "setting": "[3]; 24 h after injection", "result": "1.08 (0.11) % injected dose per gram"}, {"measurement": "Biodistribution of radioactivity: Neck", "setting": "[3]; 24 h after injection", "result": "0.02 (0.00) % injected dose"}, {"measurement": "Biodistribution of radioactivity: Pancreas", "setting": "[3]; 24 h after injection", "result": "1.66 (0.46) % injected dose per gram"}, {"measurement": "Biodistribution of radioactivity: S. Intestine", "setting": "[3]; 24 h after injection", "result": "1.11 (0.31) % injected dose per gram"}, {"measurement": "Biodistribution of radioactivity: Spleen", "setting": "[3]; 24 h after injection", "result": "1.62 (0.16) % injected dose per gram"}, {"measurement": "Biodistribution of radioactivity: Stomach", "setting": "[3]; 24 h after injection", "result": "0.67 (0.13) % injected dose"}]}]}
